The supplement of paper PMC10307832

Columns and labels:
Assay in all cases: relative viability (nuclei count vs DMSO), 5 days (fraction); higher = more cells survive
[1] = compound: N#CC[C@H](C1CCCC1)n1cc(-c2ncnc3[nH]ccc23)cn1 [Ruxolitinib] + Cc1cc(Nc2cc(N3CCN(C)CC3)nc(Sc3ccc(NC(=O)C4CC4)cc3)n2)n[nH]1 [Tozasertib] (partner 0.1 µM)
Procedure, shortened: (§1)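 The day after seeding in 1536-well plates, lung cancer cell lines were treated by pin tool with a single drug, or with a fixed anchor-drug dose together with five library-drug doses (not always all listed) in √10 steps. After 5 days, a combined fix-and-stain solution (final 0.05% Triton X-100, 1% formaldehyde, 1 ug/ml Hoechst) was added. Nuclei counted on 4× images gave relative viability as treated counts over vehicle counts, reported as the median of duplicate plates.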

[2] = compound: CS(=O)(=O)c1ccc(C(=O)Nc2ccc(Cl)c(-c3ccccn3)c2)c(Cl)c1 [Vismodegib] + Nc1nc2[nH]cc(CCc3ccc(C(=O)N[C@@H](CCC(=O)O)C(=O)O)cc3)c2c(=O)[nH]1 [Pemetrexed] (partner 0.2 µM)
Procedure, shortened: as §1

[3] = compound: N#CC[C@H](C1CCCC1)n1cc(-c2ncnc3[nH]ccc23)cn1 [Ruxolitinib] + CS(=O)(=O)CCNCc1ccc(-c2ccc3ncnc(Nc4ccc(OCc5cccc(F)c5)c(Cl)c4)c3c2)o1 [Lapatinib] (partner 2 µM)
Procedure, shortened: as §1

[4] = compound: N#CC[C@H](C1CCCC1)n1cc(-c2ncnc3[nH]ccc23)cn1 [Ruxolitinib] + CC(C)C[C@H](NC(=O)[C@H](Cc1ccccc1)NC(=O)c1cnccn1)B(O)O [Bortezomib] (partner 0.002 µM)
Procedure, shortened: as §1

Row | Cell Line | relative viability ([1]; first compound 0.08 µM) | relative viability ([1]; first compound 0.253 µM) | relative viability ([1]; first compound 0.8 µM) | relative viability ([1]; first compound 2.53 µM) | relative viability ([1]; first compound 8 µM) | relative viability ([2]; first compound 0.08 µM) | relative viability ([2]; first compound 0.253 µM) | relative viability ([2]; first compound 0.8 µM) | relative viability ([2]; first compound 2.53 µM) | relative viability ([2]; first compound 8 µM) | relative viability ([3]; first compound 0.253 µM) | relative viability ([3]; first compound 0.8 µM) | relative viability ([3]; first compound 2.53 µM) | relative viability ([3]; first compound 8 µM) | relative viability ([3]; first compound 0.08 µM) | relative viability ([4]; first compound 0.253 µM) | relative viability ([4]; first compound 0.8 µM) | relative viability ([4]; first compound 2.53 µM) | relative viability ([4]; first compound 8 µM) | relative viability ([4]; first compound 0.08 µM)
1 | NCI-H1395 | 0.768 | 0.718 | 0.86 | 0.753 | 0.78 | 0.918 | 0.817 | 0.775 | 0.93 | 0.743 | 0.879 | 1.16 | 0.777 | 0.944 | – | – | – | – | – | –
2 | NCI-H358 | 0.102 | 0.0986 | 0.102 | 0.102 | 0.0752 | 0.18 | 0.183 | 0.174 | 0.172 | 0.181 | 0.434 | 0.445 | 0.36 | 0.35 | 0.421 | – | – | – | – | –
3 | NCI-H1793 | 0.343 | 0.368 | 0.48 | 0.492 | 0.309 | – | 0.877 | 0.708 | 0.83 | 0.726 | 0.665 | 0.905 | 0.896 | 0.493 | 0.647 | – | – | – | – | –
4 | ChaGo-K-1 | 0.246 | 0.243 | 0.454 | 0.176 | 0.195 | 0.256 | 0.256 | 0.255 | 0.265 | 0.263 | – | – | – | – | – | 0.929 | 0.94 | 0.976 | 0.701 | –
5 | EBC-1 | – | – | – | – | – | – | – | – | – | – | – | 0.216 | 0.232 | 0.195 | 0.21 | 0.49 | 0.597 | 0.42 | 0.361 | 0.592
6 | NCI-H1944 | 0.248 | 0.263 | 0.24 | 0.292 | 0.266 | 0.625 | 0.696 | 0.611 | – | 0.629 | 0.903 | 0.798 | 0.729 | 0.815 | 0.823 | – | – | – | – | –
7 | NCI-H2342 | 0.529 | 0.556 | 0.486 | 0.479 | 0.532 | 0.769 | 0.821 | 0.81 | 0.611 | 0.719 | – | – | – | – | – | – | – | – | – | –
8 | NCI-H1299 | – | – | – | – | – | – | – | – | – | – | 0.963 | 0.957 | 0.915 | 0.718 | 0.937 | 0.997 | 1.02 | 0.932 | 0.984 | 1
9 | Calu-6 | – | – | – | – | – | – | – | – | – | – | 1.09 | 1.17 | 1 | 0.647 | 1.09 | 0.93 | 1.18 | 0.921 | 0.557 | 1.02
10 | IA-LM | – | – | – | – | – | – | – | – | – | – | 0.657 | 1.04 | 1.01 | 0.477 | 0.903 | 0.931 | 0.971 | 0.917 | 0.61 | 0.998
11 | NCI-H1648 | – | 0.414 | 0.747 | 0.878 | 1.14 | 0.679 | 0.832 | 0.731 | 0.782 | 0.702 | – | – | – | – | – | – | – | – | – | –
12 | NCI-H522 | 0.576 | 0.567 | 0.602 | 0.533 | 0.524 | 1.18 | 0.731 | 1.01 | 0.836 | 0.988 | – | – | – | – | – | – | – | – | – | –
13 | A549 | – | – | – | – | – | – | – | – | – | – | 1.03 | 1.04 | 0.918 | 0.636 | 0.998 | – | – | – | – | –
